Values quoted from earlier work, collected in patent US5788978A, “Injectable pulsatile ivermectin composition” (priority 1996, dated 1998).

Tests used:
[1] = test system: parasites; conditions: in vivo

## ivermectin
[1]
  minimum efficiency level in serum: 2 to 5 nanogrammes per milliliter of serum
other
  solubility in acqueous media: insoluble
